Data taken from paper PMC5318888, “SAMHD1 enhances nucleoside-analogue efficacy against HIV-1 in myeloid cells” (Scientific Reports, 2017).
Like-named read-outs stand apart in the source and are kept apart here.

Legend:
[1] = test system: HIV-1-GFP; test: microbe, parasite or virus in culture; format: cell-based
Method: H9 and Jurkat cells (6 × 10^5 cells/mL) were treated with increasing concentrations of nucleoside analogues (0–200 μM; except CFB, 0–1.6 μM) and incubated for 4 h at 37 °C in 5% CO2. Cells were then infected with HIV-1-GFP by spinoculation at 800 × g for 90 min in the presence of 1 μg/mL polybrene, and further incubated at 37 °C in 5% CO2 for 72 h. Undifferentiated U937 and THP-1 (PMA^−) cells (6 × 10^5 cells/mL) were treated with increasing concentrations of nucleoside analogues (0–200 μM; except CFB, 0–1.6 μM) and incubated at 37 °C in 5% CO2 for 48 h. Cells were then infected with HIV-1-GFP by spinoculation at 800 × g for 90 min in the presence of 1 μg/mL polybrene, and further incubated at 37 °C in 5% CO2 for 72 h. Non-dividing U937 and THP-1 (PMA^+) cells (6 × 10^5 cells/mL) were differentiated by addition of 100 nM PMA (PMA^+) for 48 h and treated with increasing concentrations of nucleoside analogues as described above. Cells were then infected with HIV-1-GFP in the presence of 1 μg/mL polybrene and further incubated at 37 °C in 5% CO2 for 72 h. The percentage of GFP^+cells was determined by one-colour flow cytometry using a Fortessa X20 analyser (BD Biosciences) and the data analysed using the FlowJo software suite.
(§1) Non-ambiguous values were subjected to a replicate test to calculate confidence intervals of 95% (95% CI). CC50 and EC50 values were determined for at least two independent experiments for each nucleoside analogue and a selectivity index (SI) also calculated, (SI = CC50/EC50). EC50 values for each replicate were used to perform an unpaired two-tailed t-test to determine significant differences between U937 cells expressing SAMHD1 wt or HD206-7AA mutant and THP-1 cells expressing Vpx or untransduced cells. P values of <0.005 were considered statistically significant.

[2] = in vitro; format: cell-based; details: human
Method: H9, Jurkat and undifferentiated U937 and THP-1 (PMA^−) cells (6 × 10^5 cells/mL) were treated with increasing concentrations of nucleoside analogues (0–200 μM; except CFB, 0–1.6 μM) and incubated at 37 °C in 5% CO2 for 48 h. Medium was then replaced and cells were further incubated for 72 h. Non-dividing U937 and THP-1 (PMA^+) cells (6 × 10^5 cells/mL) were differentiated by addition of 100 nM phorbol-12-myristate-13-acetate (PMA^+) for 48 h and then treated with increasing concentrations of nucleoside analogues as described above. The percentage of live cells was determined by flow cytometry using Live/Dead fixable blue-fluorescent dyes (Invitrogen) and a Fortessa X20 analyser (BD Biosciences). Data were analysed using the FlowJo software suite.
as §1, with “The cytotoxic concentration of nucleoside analogue that inhibits cell viability by 50% (CC50) and the effective concentration of nucleoside analogue that inhibits infection of cells by 50% (EC50) were calculated for each independent experiment by non-linear regression using GraphPad Prism v6.00 for Windows (GraphPad Software, San Diego, CA). Non-ambiguous” for “Non-ambiguous”

[3] = Human immunodeficiency virus 1, THP-1, read-out: EC50 [95% CI], THP1 PMA+
[4] = Human immunodeficiency virus 1, THP-1, read-out: EC50 [95% CI], THP1 PMA−
[5] = Human immunodeficiency virus 1, U-937, read-out: EC50 [95% CI], U937 PMA+
[6] = Human immunodeficiency virus 1, U-937, read-out: EC50 [95% CI], U937 PMA−

Nc1nc2c(ncn2COCCO)c(=O)[nH]1 [ACV, Acycloguanosine]
EC50 [1, 3]: 657 nM
EC50 [1, 4]: > 200000 nM
EC50 [1, 5]: 52200 nM
EC50 [1, 6]: > 200000 nM
SI, selectivity index CC50/EC50 ([1]; THP-1 PMA+): > 304
SI, selectivity index CC50/EC50 ([1]; U937 PMA+): > 4

Nc1nc(O)c2ncn(COC(CO)CO)c2n1 [GCV, 2′-Nor-2′-deoxyguanosine]
EC50 [1, 3]: 367 nM
EC50 [1, 4]: > 200000 nM
EC50 [1, 5]: > 200000 nM
EC50 [1, 6]: > 200000 nM
SI, selectivity index CC50/EC50 ([1]; THP-1 PMA+): > 545

Cc1ccnc2c1NC(=O)c1cccnc1N2C1CC1 [NVP, Nevirapine]
EC50 [1, 3]: 219 nM
EC50 [1, 4]: 369 nM
EC50 [1, 5]: 118 nM
EC50 [1, 6]: 505 nM
SI, selectivity index CC50/EC50 ([1]; THP-1 PMA+): > 913
SI, selectivity index CC50/EC50 ([1]; THP-1 PMA−): > 542
SI, selectivity index CC50/EC50 ([1]; U937 PMA+): > 1695
SI, selectivity index CC50/EC50 ([1]; U937 PMA−): > 396

Cc1nnc(C(=O)NC(C)(C)c2nc(C(=O)NCc3ccc(F)cc3)c(O)c(=O)n2C)o1 [RAL, Raltegravir]
EC50 [1, 3]: 37 nM
EC50 [1, 4]: 44 nM
EC50 [1, 5]: 63 nM
EC50 [1, 6]: 13 nM
SI, selectivity index CC50/EC50 ([1]; THP-1 PMA+): > 5405
SI, selectivity index CC50/EC50 ([1]; THP-1 PMA−): > 4545
SI, selectivity index CC50/EC50 ([1]; U937 PMA+): > 3175
SI, selectivity index CC50/EC50 ([1]; U937 PMA−): > 15385

Cc1cn([C@H]2C=C[C@@H](CO)O2)c(=O)[nH]c1=O [d4T, 2′,3′-didehydro-2′,3′-dideoxythymidine]
EC50 [1, 3]: 3950 nM
EC50 [1, 4]: 6210 nM
EC50 [1, 5]: 7040 nM
EC50 [1, 6]: 6550 nM
fold increase of anti-HIV-1 activity in PMA+ over PMA− cells ([1]; THP-1): 2 fold
SI, selectivity index CC50/EC50 ([1]; THP-1 PMA+): > 51
SI, selectivity index CC50/EC50 ([1]; THP-1 PMA−): > 32
SI, selectivity index CC50/EC50 ([1]; U937 PMA+): > 28
SI, selectivity index CC50/EC50 ([1]; U937 PMA−): > 31
CC50 at 48 h [2]: > 200000 nM
